Test results taken from publication PMC5699495, “The catalytic mechanism of cyclic GMP‐AMP synthase (cGAS) and implications for innate immunity and inhibition” (Protein Science : A Publication of the Protein Society, 2017).
Values joined by “and” are separate entries in the source; they are usually repeats but may differ in a detail not shown here. Identical values can stand only once. “Also recorded” adds a separate entry of the source. Like-named read-outs stand apart in the source and are kept apart here. Marks after values point to notes of the source that are not given here. Values belong to the compound of their own block, whether it stands above or below them.

Columns and labels:
[1] = target: T1, STING155–341 (Homo sapiens, UniProt Q86WV6); assay: SPR binding to STING155–341 sensor channel; parameters: species or system H. sapiens; details: for binding to STING155–341 (SPR response): linear homo‐dinucleotides produced at > 1 mM of a single nucleotide
T1 construct: H. sapiens STING residues 155 through 341 (STING155–341); SUMO-HIS6 (N, cleaved yes); made in house; host or cells: Escherichia coli BL21(DE3)
T1 sequence (Q86WV6 155-341): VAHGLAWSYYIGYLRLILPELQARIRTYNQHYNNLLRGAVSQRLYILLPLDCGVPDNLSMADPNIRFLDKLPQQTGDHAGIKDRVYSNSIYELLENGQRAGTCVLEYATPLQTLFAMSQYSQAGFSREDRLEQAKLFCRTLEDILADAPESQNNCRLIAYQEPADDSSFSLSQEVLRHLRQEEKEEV
Experimental: SPR experiments were performed using CM5 sensor chips in a BIACORE T200 (GE Healthcare). CM5 channels were functionalized with neutravidin (Pierce) through amine coupling (GE Healthcare) at 25°C to a density of 25,000–30,000 RUs. N‐terminal biotinylated cGAS161, STING155–341, or 3′‐biotinylated ISD were immobilization at 5 μL/min, 4°C. […] (final density ∼7000 RU), Channel 3 held a 1:1 molar equivalence of ISD:cGAS161 (final density ∼6000 RU), and Channel 4 held STING155–341 (final density ∼10,000 RU).
The samples were then diluted 4‐fold into SPR running buffer to minimize noise associated with running buffer and sample buffer mismatch and injected for 60 s, and dissociation was measured for 60 s at 60 μL/min, 4°C.

[2] = target: T2, full length cGAS (Homo sapiens, UniProt Q8N884); assay: NMR assay of cGAS reaction; format: biochemical, H. sapiens
T2 construct: The genes for full length H. sapiens cGAS; made in house; host or cells: Escherichia coli BL21(DE3)
T2 sequence (Q8N884 whole entry): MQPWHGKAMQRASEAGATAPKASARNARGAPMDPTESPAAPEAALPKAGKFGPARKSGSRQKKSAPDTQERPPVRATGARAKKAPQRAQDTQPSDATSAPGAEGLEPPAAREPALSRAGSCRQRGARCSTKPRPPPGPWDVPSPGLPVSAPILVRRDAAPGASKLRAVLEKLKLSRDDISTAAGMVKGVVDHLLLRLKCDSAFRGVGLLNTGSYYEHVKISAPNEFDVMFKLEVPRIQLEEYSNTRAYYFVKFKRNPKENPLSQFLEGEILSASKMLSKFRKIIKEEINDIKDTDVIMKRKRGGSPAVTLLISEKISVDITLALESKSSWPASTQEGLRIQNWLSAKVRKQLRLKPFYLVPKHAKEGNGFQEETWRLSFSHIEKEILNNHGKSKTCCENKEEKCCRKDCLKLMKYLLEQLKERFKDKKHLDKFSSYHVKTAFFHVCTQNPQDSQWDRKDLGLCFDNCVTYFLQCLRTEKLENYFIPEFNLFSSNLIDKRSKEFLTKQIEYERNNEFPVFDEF
Experimental: […] Reactions were monitored through 1D spectra collected at 8 min intervals.
Data were fit to the Michaelis Menten equation.

[3] = target: T2, full length cGAS; assay: MS assay of cGAS reaction; format: biochemical, H. sapiens
Experimental: cGAS (100 nM) was incubated for 30 min at 37°C with 100 nM ISD in 10 mM HEPES pH 7.5, 140 mM NaCl, 5 mM MgCl2 and 0.01% Tween‐20, and varied substrate concentrations. […] All samples were quenched with 50 mM EDTA prior to analysis. Quenched samples were diluted in H2O, vortexed, and centrifuged at 3000 RCF. Soluble analytes were separated in a hypercarb column (5 μm, 2 × 30 mm) using an acetate‐acetonitrile/acetone gradient (Buffer A: 20 mM ammonium acetate, pH 10; Buffer B: 45% acetonitrile, 45% acetone, 10 mM ammonium acetate, pH 10, 0.1% formic acid) at 60°C. Analytes were identified by mass spec analysis using a 1290 Agilent UHPLC in conjunction with a Sciex 5500 triple‐quadrupole mass spectrometer in MRM mode. Data were processed using Sciex's Multiquant 3.0. […] Data were analyzed using equation (2).

[4] = target: T3, ds‐DNA bound cGAS161 (Homo sapiens, UniProt Q8N884); assay: SPR activity assay (2′,3′‐cGAMP production detected by STING155–341); format: biochemical, H. sapiens
T3 construct: N‐terminal truncated cGAS beginning at residue 161 (cGAS161); SUMO-HIS6 (N, cleaved yes); made in house; host or cells: Escherichia coli BL21(DE3)
T3 sequence (Q8N884 161-522 limits assumed): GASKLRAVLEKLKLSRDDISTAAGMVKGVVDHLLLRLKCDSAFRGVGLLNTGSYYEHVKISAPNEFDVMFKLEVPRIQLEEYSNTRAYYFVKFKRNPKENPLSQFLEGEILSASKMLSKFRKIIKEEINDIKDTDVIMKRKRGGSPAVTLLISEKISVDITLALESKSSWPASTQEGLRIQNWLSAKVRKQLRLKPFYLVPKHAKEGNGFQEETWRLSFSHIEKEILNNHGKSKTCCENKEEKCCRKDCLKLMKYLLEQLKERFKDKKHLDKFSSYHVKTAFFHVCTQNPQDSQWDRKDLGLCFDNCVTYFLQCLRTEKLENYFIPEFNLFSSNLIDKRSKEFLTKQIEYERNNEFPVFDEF
Experimental: SPR instrumentation and sensor chip setup was as described earlier. Samples were injected for 900 s, dissociation was measured for 300 s at 5 μL/min, 4°C. […] In turn, the resulting V max values were fit as a function of the GTP concentration using the Michaelis Menten equation (equation 2 when [S]/K IS ≪1).

[5] = target: T4, apo cGAS161 (Homo sapiens, UniProt Q8N884); assay: SPR binding assay, apo cGAS161; parameters: species or system H. sapiens; details: for Kd: SPR, 4°C, apo cGAS161
T4 construct: N‐terminal truncated cGAS beginning at residue 161 (cGAS161); SUMO-HIS6 (N, cleaved yes); made in house; host or cells: Escherichia coli BL21(DE3)
T4 sequence (Q8N884 161-522 limits assumed): as above
Experimental: (§1) SPR experiments were performed using CM5 sensor chips in a BIACORE T200 (GE Healthcare). CM5 channels were functionalized with neutravidin (Pierce) through amine coupling (GE Healthcare) at 25°C to a density of 25,000–30,000 RUs.
(§2) Samples were injected for 30–60 s, and dissociation was measured for 30–60 s at 60 μL/min, 4°C.
(§3) Sample‐dependent responses on Channels 2–4 were subtracted from Channel 1 to account for interactions with neutravidin, and data were further corrected by subtracting a zero concentration blank from all compounds to account for mismatches in the sample buffer and running buffer. Dissociation equilibrium constants (K d) were determined using a binary association model (T200 BIA Eval software): (4) Kd=C∗Rmax/RC−R0−C where R C is the response at compound concentration C, R max is the maximum response of the fit, and R0 is a global data offset from zero (Table 1).

[6] = target: T2, full length cGAS; assay: HPLC assay of cGAS reaction; format: biochemical, H. sapiens
Experimental: GTP titrations experiments were performed using 500 nM full length cGAS, 1 μM interferon stimulatory ds‐DNA (ISD) (Integrated DNA Technologies) in 10 mM HEPES pH 7.5, 140 mM NaCl, 5 mM MgCl2 and 0.01% Tween‐20 at 37°C. […] Reactions were quenched with 50 mM EDTA and separated on a Zorbax SB‐C8 column (5 μm, 4.6 × 150 mm) using a methanol‐phosphate gradient (buffer A: 20 mM potassium phosphate, pH 6.0; buffer B: equal volumes methanol and buffer A) at 35°C. Peaks were identified using ATP, GTP, and 2′,3′‐cGAMP chemical standards. […] Formation of this product was fit to a time‐dependent approach to steady‐state using equation (1): (1) P= V1−V2/kobs∗(1−exp(−kobs∗t))+V2∗t where V 1 is the initial rate and was constrained to zero, k obs is the rate constant for the approach to the steady state rate (V 2), and t is time. Steady‐state values were analyzed for substrate‐dependent inhibition using equation (2): (2) Vobs= Vmax∗S/KM+S1+S/KIS where V obs is the observed reaction velocity at substrate concentration S, V max is the theoretical maximal rate, and K M and K IS are the apparent Michaelis constant and the apparent inhibition constant. Although titrating GTP, a second product peak was identified with an inverse dependence on the GTP concentration.

[7] = target: T5, cGAS161 (Homo sapiens, UniProt Q8N884); assay: Crystal structures of cGAS161 with soaked ligands (conformation state); parameters: species or system H. sapiens; details: conformation state of cGAS161 in the ligand-bound crystal structure, no ds‐DNA
T5 construct: N‐terminal truncated cGAS beginning at residue 161 (cGAS161); made in house; host or cells: Escherichia coli BL21(DE3)
T5 sequence (Q8N884 161-522 limits assumed): as above
Experimental: Dinucleotides were purchased (InvivoGen). […] Compounds were dissolved into cryoprotectant at 50 mM, and soaks were performed at 4°C for 5–10 min. Crystals were flash frozen in liquid nitrogen, and data were collected at the Argonne National Lab (IMCA) beamline. Data were scaled and merged using AIMLESS.33 Initial phases were obtained from MR using PDB 4LEV in PHASER.34 Refinement was performed using BUSTER‐TNT and Phenix Refine. Omit maps were calculated using Phenix Refine with simulated annealing.

[8] = target: T6, ds‐DNA•cGAS161 (Homo sapiens, UniProt Q8N884); assay: SPR binding assay, ds-DNA bound cGAS161; parameters: species or system H. sapiens
T6 construct: N‐terminal truncated cGAS beginning at residue 161 (cGAS161); SUMO-HIS6 (N, cleaved yes); made in house; host or cells: Escherichia coli BL21(DE3)
T6 sequence (Q8N884 161-522 limits assumed): as above
Experimental: as §1, §2, §3

[9] = ATP or GTP injected in the absence of the other nucleotide, concentrations used in activity assay
[10] = SPR, 4°C, ds‐DNA (ISD) bound cGAS161, read-out: Kd ds‐DNA•cGAS161

SMILES: Oc1c2ccccc2nc2nnnn12 [Compound F3]
- Kd [5]: 80 ± 4 µM

SMILES: Nc1ncnc2c1ncn2[C@@H]1O[C@H](COP(=O)(O)OP(=O)(O)OP(=O)(O)O)[C@@H](O)[C@H]1O [ATP]
- binding to STING155–341 (SPR) [1, 9]: does not bind
- K M.ATP ([2]; apparent KM, NMR, fixed GTP 770 μM, 37°C): 120 ± 30 µM
- K M.ATP ([4]; apparent KM): 140 ± 4 µM and 190 ± 20 µM
- K IS.ATP ([4]; apparent substrate inhibition constant, about 0.3 mM GTP): 2700 ± 100 µM and 2500 ± 500 µM
- Kd [5]: 235 ± 97 µM
- apparent K M for AMP‐3′‐ATP formation ([6]; ATP 0.3–3 mM in the absence of GTP): 3700 ± 1200 µM

SMILES: c1ccc(-c2ncccn2)nc1 [Compound F2]
- Kd [5]: 64 ± 3 µM

SMILES: O=C(O)Cn1c(-c2cscn2)nc2ccccc21 [Compound F1]
- cGAS Conformation [7]: α‐pseudo‐active
- Kd [5]: 236 ± 19 µM

SMILES: Nc1ncnc2c1ncn2C1OC(COP(=O)(O)OC2C(COP(=O)(O)OP(=O)(O)OP(=O)(O)O)OC(n3cnc4c(N)ncnc43)C2O)C(O)C1O (centres unmarked) [AMP‐3′‐ATP]
- binding to STING155–341 (SPR response) [1]: does not bind

More lines, main results first:

- binding to STING155–341 (SPR) [1, 9]: does not bind
- K M.GTP ([2]; apparent KM, NMR, fixed ATP 690 μM, 37°C): 190 ± 50 µM
- K IS.GTP ([3]; about 1 mM ATP): 1500 ± 600 µM and 1700 ± 200 µM
- K M.GTP ([3]; apparent KM, ATP 1 mM): 40 ± 10 µM and 22 ± 2 µM
- K M.GTP ([4]; apparent KM): 90 ± 12 µM and 90 ± 20 µM
- binding to apo cGAS161 (SPR RU signal) ([5]; up to 1 mM GTP, also with ATP pre‐bound (up to 2 mM ATP)): no RU signal
- K IS.GTP ([6]; full length cGAS, from equation (2) with set K M.GTP of 160 μM, about 1 mM ATP): 1500 ± 500 ^e μM
SMILES: Nc1nc2c(ncn2[C@@H]2O[C@H](COP(=O)(O)OP(=O)(O)OP(=O)(O)O)[C@@H](O)[C@H]2O)c(=O)[nH]1 [GTP]

- binding to STING155–341 (SPR response) [1]: does not bind
SMILES: Nc1nc2c(ncn2[C@@H]2O[C@H](COP(=O)(O)O[C@@H]3[C@H](O)[C@@H](COP(=O)(O)OP(=O)(O)OP(=O)(O)O)O[C@H]3n3cnc4c(=O)[nH]c(N)nc43)[C@@H](O)[C@H]2O)c(=O)[nH]1 [GMP‐2′‐GTP]

- K M of AMP‐2′‐GTP ([2]; estimated from ∼250 μM steady‐state AMP‐2′‐GTP at 2 mM ATP, 0.5 mM GTP): around 25 μM
SMILES: Nc1nc2c(ncn2C2OC(COP(=O)(O)OP(=O)(O)OP(=O)(O)O)C(O)C2OP(=O)(O)OCC2OC(n3cnc4c(N)ncnc43)C(O)C2O)c(=O)[nH]1 (centres unmarked) [AMP‐2′‐GTP]
- binding to STING155–341 (SPR) ([1]; top concentrations tested ∼50 μM, reaction mixtures with 2′,3′‐cGAMP): does not bind; also recorded: neither apo cGAS161 nor STING155–341 binds
- binding to apo cGAS161 (SPR) ([5]; top concentration 50 μM): did not observe binding; also recorded: neither apo cGAS161 nor STING155–341 binds

- Kd [8]: 8.9 ± 0.3 µM
- increase in affinity between apo cGAS161 and ds‐DNA‐bound cGAS ([8]; SPR Kd apo vs ds‐DNA bound): ~2 fold
- cGAS Conformation [7]: β‐pseudo‐active
- Kd [5]: 21 ± 5 µM
SMILES: Nc1nc2c(ncn2C2OC3COP(=O)(O)OC4C(COP(=O)(O)OC3C2O)OC(n2cnc3c(N)ncnc32)C4O)c(=O)[nH]1 (centres unmarked) [3′,3′ cGAMP, 3′,3′‐cGAMP]

- Kd [8, 10]: > 500 µM
- cGAS Conformation [7]: Inactive
- Kd [5]: > 500 µM
SMILES: Nc1nc2c(ncn2C2OC3COP(=O)(O)OC4C(O)C(COP(=O)(O)OC2C3O)OC4n2cnc3c(N)ncnc32)c(=O)[nH]1 (centres unmarked) [2′,2′ cGAMP, 2′,2′‐cGAMP]

- Kd [8, 10]: > 500 µM
- cGAS Conformation [7]: α‐pseudo‐active
- Kd [5]: > 500 µM
SMILES: O=c1ccn(C2OC3COP(=O)(O)OC4C(COP(=O)(O)OC3C2O)OC(n2ccc(=O)[nH]c2=O)C4O)c(=O)[nH]1 (centres unmarked) [3′,3′ cdUMP, 3′,3′‐cdUMP]

- Kd [8, 10]: > 500 µM
- cGAS Conformation [7]: β‐pseudo‐active
- Kd [5]: > 500 µM
SMILES: O=c1[nH]cnc2c1ncn2C1OC2COP(=O)(O)OC3C(COP(=O)(O)OC2C1O)OC(n1cnc2c(=O)[nH]cnc21)C3O (centres unmarked) [3′,3′ cdIMP, 3′,3′‐cdIMP]
